Experimental findings from patent US5801016A, “DNA fragment, recombinant vector containing the same and method for expressing foreign genes using the same” (Japan Tobacco Inc., priority 1995, dated 1998) are described below.

In assay [1] the target is T1, rice (Oryza sativa) bran phospholipase D (PLD), purified fraction Mono Q 2nd-I (Oryza sativa subsp. japonica, UniProt Q43007).
T1 construct: bran of rice (Oryza sativa); from tissue; host or cells: rice (Oryza sativa) bran, variety KOSHIHIKARI, purified to Mono Q 2nd-I
T1 sequence (Q43007 47-812): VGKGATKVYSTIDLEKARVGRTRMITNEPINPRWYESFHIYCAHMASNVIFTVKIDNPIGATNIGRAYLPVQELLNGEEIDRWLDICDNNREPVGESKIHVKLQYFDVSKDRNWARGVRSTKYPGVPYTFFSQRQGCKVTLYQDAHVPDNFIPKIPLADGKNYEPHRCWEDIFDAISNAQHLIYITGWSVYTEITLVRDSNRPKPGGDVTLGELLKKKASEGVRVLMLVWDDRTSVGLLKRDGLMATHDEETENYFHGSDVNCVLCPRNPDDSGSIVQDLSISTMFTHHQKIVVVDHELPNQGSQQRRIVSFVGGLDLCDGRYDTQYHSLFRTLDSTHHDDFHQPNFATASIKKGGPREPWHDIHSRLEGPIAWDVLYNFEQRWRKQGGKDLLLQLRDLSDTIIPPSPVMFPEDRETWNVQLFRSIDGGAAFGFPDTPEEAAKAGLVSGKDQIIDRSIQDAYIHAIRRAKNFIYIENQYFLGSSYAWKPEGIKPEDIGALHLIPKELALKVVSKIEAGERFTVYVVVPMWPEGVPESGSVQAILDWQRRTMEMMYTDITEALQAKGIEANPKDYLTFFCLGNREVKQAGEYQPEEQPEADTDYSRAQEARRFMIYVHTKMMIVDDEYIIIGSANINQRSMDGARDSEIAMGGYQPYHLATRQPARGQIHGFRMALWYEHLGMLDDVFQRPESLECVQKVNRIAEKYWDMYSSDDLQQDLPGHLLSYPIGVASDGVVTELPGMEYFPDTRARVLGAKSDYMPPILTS
As to the kind of experiment: PLD enzyme activity with phosphatidylcholine as substrate, quantifying the choline generated. It counts as biochemical. The following applies: eluted solution Mono Q 2nd-I. How it is done: (§1) For purification, a reference (Takano et al., Journal of Japan Food Industry Association, 34, 8-13 (1987) was referred. The enzyme activity was measured by employing phosphatidylcholine as a substrate and quantifying the choline generated by the enzyme reaction (Imamura et al., J. Biochem. 83, 677-680 (1978)). It should be noted, however, the enzyme reaction was stopped by heat treatment at 95° C. for 5 minutes.
(§2) Properties of the enzymes contained in the two fractions were determined. The buffer solutions used for the measurement of the optimum pH were sodium acetate (pH 4-6), MES-NaOH (pH 5.5-7.0) and Tris-HCl (pH 7-9), all of which have a concentration of 100 mM in all of the buffer solutions. The pH stability means the pH range in which decrease in the enzyme activity is not observed after leaving the enzyme at the respective pH at 25° C. for 30 minutes. The temperature stability was measured by measuring the remaining activity after leaving the enzyme to stand at 4° C., 25° C., 37° C. or 50° C. for 30 minutes. The substrate specificity was measured at a substrate concentration of 5 mM and expressed in terms of the relative activity taking the enzyme activity to phosphatidylcholine as 100.

For assay [2], the target named is T2, rice (Oryza sativa) bran phospholipase D (PLD), purified fraction Mono Q 2nd-II (Oryza sativa subsp. japonica, UniProt Q43007).
T2 construct: bran of rice (Oryza sativa); from tissue; host or cells: rice (Oryza sativa) bran, variety KOSHIHIKARI, purified to Mono Q 2nd-II
T2 sequence (Q43007 47-812): T1 sequence (Q43007 47-812)
The assay is described as above. The following applies: eluted solution Mono Q 2nd-II. It counts as biochemical. How it is done:
as §1, §2

Take phosphatidylcholine: the Km in assay [1] and in assay [2] was 290 µM throughout.

For orientation: Km means the concentration of substrate that gives half-maximal velocity.
